Experimental data: patent US7161032B2, “Sulfonamide derivatives, insecticides for agricultural and horticultural use, and usage thereof” (Nihon Nohyaku Co., Ltd., priority 2002, dated 2007)

What was measured:
Assay type in all cases: in vivo
[1] = tested on: Smaller Tea Tortrix (Adoxophyes sp.); assay: Insecticidal effect on smaller tea tortrix (Test Example 3): tea leaves immersed in 50 ppm liquid chemical; conditions: smaller tea tortrix (Adoxophyes sp.) larvae, 8 days after inoculation, 25° C., humidity 70%
Method in brief: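 Tea leaves dipped about 30 seconds in 50 ppm compound preparation, air-dried, then infested with larvae and held at 25° C and 70% humidity. Dead and alive counted 8 days after inoculation; triplicate groups of 10 insects.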

[2] = tested on: Common Cutworm (Spodoptera litura); assay: Insecticidal effect on common cutworm (Test Example 2): cabbage leaf piece immersed in 50 ppm liquid chemical; conditions: common cutworm (Spodoptera litura) second-instar larvae, 8 days after inoculation, 25° C.
Method in brief: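 Cabbage leaf pieces (cv. Shikidori) dipped ~30 s in formulated compound at 50 ppm and air-dried. Second-instar larvae added, kept at 25° C. Dead and alive counted at 8 days to give % mortality, scored against a criterion scale; three groups of 10 insects.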

[3] = tested on: Diamond Back Moth (Plutella xylostella); assay: Insecticidal effect on diamond back moth (Test Example 1): egg-bearing Chinese cabbage seedling immersed in 50 ppm liquid chemical
Method in brief: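 Seedlings bearing 2-day-old eggs dipped about 30 s in 50 ppm formulated compound, air-dried, held at 25° C. Hatched larvae counted 6 days after immersion; mortality calculated and graded by criterion. Triplicate groups of 10 insects.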

Which “Insecticidal effect (mortality grade), Test Example 3” value (“Insecticidal effect … Test Example 3” for short) [1] does the source give for `Cc1cc(C(F)(C(F)(F)F)C(F)(F)F)ccc1NC(=O)c1cccc(I)c1C(=O)NC(C)CS(=O)(=O)N(C)C` (stereo not drawn) [1-3] here?
Its value is “A (Mortality 100%)”.

What about the “Insecticidal effect (mortality grade), Test Example 2” value (“Insecticidal effect … Test Example 2” for short) [2] of the same compound?
The value was “A (Mortality 100%)”.

What about the “Insecticidal effect (mortality grade), Test Example 1” value (“Insecticidal effect … Test Example 1” for short) [3] of the same compound?
Its value is “A (Mortality 100%)”.

How did the “Insecticidal effect … Test Example 3” value [1] turn out when `CNS(=O)(=O)CC(C)(C)NC(=O)c1c(I)cccc1C(=O)Nc1ccc(C(F)(C(F)(F)F)C(F)(F)F)cc1C` [1-176] was run?
The value was “A (Mortality 100%)”.

And the “Insecticidal effect … Test Example 2” value [2]?
The value was “A (Mortality 100%)”.

And the “Insecticidal effect … Test Example 1” value [3]?
The value was “A (Mortality 100%)”.

With `Cc1cc(C(F)(C(F)(F)F)C(F)(F)F)ccc1NC(=O)c1cccc(I)c1C(=O)NC(C)CS(=O)(=O)NC(C)(C)C` (stereo not drawn) [1-14] as the compound, how does the “Insecticidal effect … Test Example 3” value [1] read?
The value was “A (Mortality 100%)”.

And the “Insecticidal effect … Test Example 2” value [2]?
The value was “A (Mortality 100%)”.

What about the “Insecticidal effect … Test Example 1” value [3] of the same compound?
The value was “A (Mortality 100%)”.

With `CCNS(=O)(=O)CC(C)NC(=O)c1c(Br)cccc1C(=O)Nc1ccc(C(F)(C(F)(F)F)C(F)(F)F)cc1C` (stereo not drawn) [1-212] as the compound, how does the “Insecticidal effect … Test Example 3” value [1] read?
The value was “A (Mortality 100%)”.

And the “Insecticidal effect … Test Example 2” value [2]?
Its value is “A (Mortality 100%)”.

What about the “Insecticidal effect … Test Example 1” value [3] of the same compound?
The value was “A (Mortality 100%)”.

What does the source list for `CCN(CC)S(=O)(=O)CC(C)(C)NC(=O)c1c(I)cccc1C(=O)Nc1ccc(OC(F)(F)F)cc1Cl` [1-286]?
Insecticidal effect (mortality grade), Test Example 3 [1]: E (Mortality less than 50%); Insecticidal effect (mortality grade), Test Example 2 [2]: A (Mortality 100%); Insecticidal effect (mortality grade), Test Example 1 [3]: A (Mortality 100%)

Which “Insecticidal effect … Test Example 3” value [1] does the source give for `CCSCCNS(=O)(=O)CC(C)(C)NC(=O)c1c(I)cccc1C(=O)Nc1ccc(C(F)(F)C(F)(F)F)cc1C` [1-307] here?
The value was “A (Mortality 100%)”.

What about the “Insecticidal effect … Test Example 2” value [2] of the same compound?
Its value is “A (Mortality 100%)”.

And the “Insecticidal effect … Test Example 1” value [3]?
Its value is “A (Mortality 100%)”.

With `CCSCCNS(=O)(=O)CC(C)(C)NC(=O)c1c(I)cccc1C(=O)Nc1ccc(C(F)(C(F)(F)F)C(F)(F)F)cc1C` [1-84] as the compound, how does the “Insecticidal effect … Test Example 3” value [1] read?
Its value is “A (Mortality 100%)”.

What about the “Insecticidal effect … Test Example 2” value [2] of the same compound?
The value was “A (Mortality 100%)”.

What about the “Insecticidal effect … Test Example 1” value [3] of the same compound?
Its value is “A (Mortality 100%)”.

Which results are given for `Cc1cc(C(F)(C(F)(F)F)C(F)(F)F)ccc1NC(=O)c1cccc(I)c1C(=O)NC(C)CS(=O)(=O)NCc1ccccc1Br` (stereo not drawn) [1-25]?
Insecticidal effect (mortality grade), Test Example 3 [1]: A (Mortality 100%); Insecticidal effect (mortality grade), Test Example 2 [2]: A (Mortality 100%); Insecticidal effect (mortality grade), Test Example 1 [3]: A (Mortality 100%)

For `Cc1cc(C(F)(C(F)(F)F)C(F)(F)F)ccc1NC(=O)c1cccc(I)c1C(=O)NC(C)(C)CS(=O)(=O)N1CC[S+]([O-])CC1C` (stereo not drawn) [1-62], which “Insecticidal effect … Test Example 3” value [1] is on record?
The value was “A (Mortality 100%)”.

And the “Insecticidal effect … Test Example 2” value [2]?
The value was “A (Mortality 100%)”.

What about the “Insecticidal effect … Test Example 1” value [3] of the same compound?
Its value is “A (Mortality 100%)”.

How did the “Insecticidal effect … Test Example 3” value [1] turn out when `Cc1cc(C(F)(C(F)(F)F)C(F)(F)F)ccc1NC(=O)c1cccc(I)c1C(=O)NC(C)CS(=O)(=O)N(C)Cc1ccccc1` (stereo not drawn) [1-42] was run?
Its value is “A (Mortality 100%)”.

And the “Insecticidal effect … Test Example 2” value [2]?
Its value is “A (Mortality 100%)”.

And the “Insecticidal effect … Test Example 1” value [3]?
The value was “A (Mortality 100%)”.

Which results are given for `Cc1cc(C(F)(C(F)(F)F)C(F)(F)F)ccc1NC(=O)c1cccc(I)c1C(=O)NC(C)CS(=O)(=O)NCc1ccccn1` (stereo not drawn) [1-39]?
Insecticidal effect (mortality grade), Test Example 3 [1]: A (Mortality 100%); Insecticidal effect (mortality grade), Test Example 2 [2]: A (Mortality 100%); Insecticidal effect (mortality grade), Test Example 1 [3]: A (Mortality 100%)

With `COCCNS(=O)(=O)CC(C)NC(=O)c1c(I)cccc1C(=O)Nc1ccc(C(F)(C(F)(F)F)C(F)(F)F)cc1C` (stereo not drawn) [1-73] as the compound, how does the “Insecticidal effect … Test Example 3” value [1] read?
Its value is “A (Mortality 100%)”.

And the “Insecticidal effect … Test Example 2” value [2]?
The value was “A (Mortality 100%)”.

What about the “Insecticidal effect … Test Example 1” value [3] of the same compound?
The value was “A (Mortality 100%)”.

How did the “Insecticidal effect … Test Example 3” value [1] turn out when `Cc1cc(C(F)(C(F)(F)F)C(F)(F)F)ccc1NC(=O)c1cccc(Br)c1C(=O)NC(C)CS(=O)(=O)N(C)C` (stereo not drawn) [1-213] was run?
The value was “A (Mortality 100%)”.

What about the “Insecticidal effect … Test Example 2” value [2] of the same compound?
The value was “A (Mortality 100%)”.

And the “Insecticidal effect … Test Example 1” value [3]?
Its value is “A (Mortality 100%)”.
